Data published in patent publication US9987379B2, “Molecular probes for imaging of myelin” (Case Western Reserve University, priority 2008, dated 2018).
pKi: −log10 of the molar value.

What was measured:
[1] = molecular target: [3H]BMB binding sites on rat myelin fractions; test: Competition binding assay using [3H]BMB as radioligand in isolated myelin fractions; settings: 1.87 nM [3H]BMB, Cheng-Prusoff from IC50
Description: FIG. 4 illustrates plots of competition binding assays of test compounds using [^3H]BMB as the radioligand in isolated myelin fractions. The concentrations that inhibited 50% of specific binding of [^3H]BMB (IC50 values) were converted to inhibition constant (Ki). Ki values were calculated using the Cheng-Prusoff equation: Ki=IC50/(1+[L]/Kd), where [L] is the concentration of [^3H]BMB used in the assay. Data are means of three independent measurements done in duplicate.
In vitro binding assay using radioligand is the most sensitive techniques available to quantitatively determine the binding affinities of compounds to certain proteins. Our previous studies have shown that BMB binds to myelin sheaths with high affinity and specifity (Stankoff, B.; Wang, Y.; Bottlaender, M.; Aigrot, M. S.; Dolle, F. et al. Imaging of CNS myelin by positron-emission tomography. Proc Natl Acad Sci USA 2006, 103, 9304-9309). For this reason, tritiated BMB was custom synthesized by American Radiolabeled Chemicals Inc. (St Louis, Mo.) and was used as the radioligand for binding assays. This allowed us to determine the binding affinities of the newly synthesized compounds using isolated rat myelin fractions. Saturation experiment was first conducted using [^3H]BMB. […] Competitive binding assays were also conducted using [^3H]BMB as radioligand. The stilbene derivatives competed effectively with [^3H]BMB binding sites on rat myelin fractions at affinities of low micromole concentrations.
(§1) Sprague-Dawley (SD) rats were asphyxiated with CO2. When the rat had stopped breathing, the skin/fur over the neck was wetted with a spray of 70% ethanol. […] The concentration of myelin and pellet were determined by Bio-Rad Protein Assay.
The radioligand-based binding assays were carried out in 12×75 mm borosilicate glass tubes. […] Nonspecific binding was defined in the presence of cold BMB (1 μM, diluted in PBS (containing 1% DMSO) in the same assay tubes. For the competition binding, 10^−5 to 10^−10 M compounds and 1.87 nM [^3H]BMB were used for the studies. The mixture was incubated at 37° C. for 2 hrs. The bound and free radioactivity were separated by rapid vacuum filtration through Whatman GF/B filters using a Brandel M-24R cell harvester followed by 3×2 mL washes of PBS at room temperature. Filters containing the bound radioligand were dissolved in 6 mL biodegradable counting cocktail overnight and the radioactivity was assayed next day in the scintillation counter (Beckman) with 42% counting efficiency. The results of saturation and inhibition experiments were subjected to nonlinear regression analysis using Graph Pad Prism 4 by which Kd and Ki values were calculated.

[2] = test system: myelinated corpus callosum and cerebellum; test: In vitro staining of myelinated white matter in mouse brain tissue sections (fluorescent microscopy); type: binding; settings: 10 μM, wild-type mouse brain sections
Description: We then evaluated the myelin-binding properties of the newly synthesized compounds 3, 6, and 7 through in vitro staining of mouse brain tissue sections. Both myelinated corpus callosum and cerebellar regions were then examined by fluorescent microscopy.
Normal control mice were deeply anesthetized and perfused transcardially with saline (10 mL) followed by fixation with 4% PFA in PBS (10 mL, 4° C., pH 7.6). Brain tissues were then removed, postfixed by immersion in 4% PFA overnight, dehydrated in 30% sucrose solution, embedded in freezing compound (OCT, Fisher Scientific, Suwanee, Ga.), cryostat sectioned at 10 μm on a microtome and mounted on superfrost slides (Fisher Scientific). The brain sections were incubated with compound 3, 6 and 7 (10 μM, 1% DMSO in PBS (10 mM, pH 7.0)) for 20 minutes at room temperature in dark. Excess compounds were washed by briefly rinsing the slides in PBS (10 mM, pH 7.0) and coversliped with fluoromount-G mounting media (Vector Laboratories, Burlingame, Calif.). Sections were then examined under a Leica DRMB microscope equipped for fluorescence.

[3] = Solubility in organic solvents; type: physicochemical
[4] = test system: isolated myelin fractions; test: Spectrophotometry-based binding assay with isolated myelin fractions; parameters: species or system rat; settings: 10 μM compound per tube, 1 h room temperature
Description: (§2) FIG. 2 illustrates plots of the concentrations of free, unbound 6 and 7 following incubation with isolated myelin fractions and non-myelin pellets based upon a spectroscopic assay. In these assays, 10 μM of 6 and 7 was added to each solution containing myelin fractions or non-myelin pellets at various concentrations ranging from 0-2.5 μg per tube. Each data point was repeated in triplicate and an average was used.
Binding affinities of newly synthesized compounds 6 and 7 were determined based on spectrophotometry. […] The desired proteins were aliquoted and frozen at −80° C. for up to 6 months without noticeable change in its properties determined by electrophoresis (data not shown). […] The free and bound tested compounds were then separated by centrifuging at 6000 rpm for 10 min and quantified.
Sprague-Dawley (SD) rats were asphyxiated with CO2. […] The concentration of myelin and pellet were determined by Bio-Rad Protein Assay.
In the spectrophotometry-based binding assays, a solution of 6 or 7 (800 μL, 12.5 μM) dissolved in 10% DMSO buffer solution containing 10 mM MgCl2 and 10 mM PBS (pH 7.4) was incubated with isolated myelin or pellets at different concentrations ranging from 0.06 to 14 μg/tube. […] In parallel, non-specific binding was determined using pellets under the same condition. […]

non-myelin pellets = test: Spectrophotometry-based binding assay with non-myelin pellets; parameters: species or system rat; settings: 1 h room temperature; for binding to non-myelin fractions: 10 μM compound per tube; for concentration of free, unbound compound (constant and close to the total concentration initially used): incubated with non-myelin pellet at increasing concentration
Description: as §2
Binding affinities of newly synthesized compounds 6 and 7 were determined based on spectrophotometry. Myelin sheaths and non-myelin pellets were extracted from rat's brain homogenates according to subcellular fraction protocol (Martenson, R. E.; Deibler, G. E.; Kies, M. W. Extraction of rat myelin basic protein free of other basic proteins of whole central nervous system tissue. An analysis of its electrophoretic heterogeneity. J Biol Chem 1969, 244, 4268-4272). Briefly, the homogenates were successively mixed with different concentrations of sucrose and spun in a Beckman ultracentrifuge. Myelin sheaths and non-myelin containing pellets were well separated according to their different densities and located in different layers of sucrose. The proteins were then collected and washed thoroughly with Colman buffer (10 mM). The desired proteins were aliquoted and frozen at −80° C. for up to 6 months without noticeable change in its properties determined by electrophoresis (data not shown). Prior to binding assays, the protein fractions (myelin and pellet) were thawed and diluted with PBS (10 mM, pH 7.0). A series of concentrations of the protein fractions were incubated with tested compounds (6 and 7, 12.5 μM) for 1 h at room temperature. The free and bound tested compounds were then separated by centrifuging at 6000 rpm for 10 min and quantified.
as §1
In the spectrophotometry-based binding assays, a solution of 6 or 7 (800 μL, 12.5 μM) dissolved in 10% DMSO buffer solution containing 10 mM MgCl2 and 10 mM PBS (pH 7.4) was incubated with isolated myelin or pellets at different concentrations ranging from 0.06 to 14 μg/tube. […] Following incubation at room temperature for 1 hr, the free and bound 6 or 7 was separated by centrifugation at 6000 rpm for 10 min The supernatant was then collected and the UV absorption of free 6 or 7 determined by UV spectrometer were at 350 nm or 363 nm. […] In parallel, non-specific binding was determined using pellets under the same condition. […]

myelinated cerebellum = test: In situ tissue staining of myelinated white matter after tail vein injection; type: in vivo, mouse; settings: 20-80 mg/kg tail vein, three hours post injection, wild-type mice
Description: Following our in vitro tissue staining studies, we then evaluated the brain permeability and subsequent myelin-binding properties of 6 and 7 in the mouse brain. A dose of 6 or 7 (20-80 mg/kg) was administered via tail vein injection into wild-type mice. Three hours post injection, the mouse brains were perfused with saline followed by 4% paraformaldehyde (PFA) and removed. The fresh frozen brains were then sectioned. Fluorescent staining of myelinated regions such as the cerebellum were then directly examined under a microscope.
Under anesthesia, wild-type mice were injected with compounds 6 and 7 (20-80 mg/kg) via the tail vein, and the mice were then perfused transcardially with saline (10 ml) followed by 4% PFA in PBS (10 ml, 4° C., pH 7.6). Brain tissues were then removed, postfixed by immersion in 4% PFA overnight, dehydrated in 30% sucrose solution, cryostat sectioned at 16 μm on a microtome and mounted on superfrost slides (Fisher Scientific), and imaged directly under fluorescent microscopy without any further staining.

pKi [1] | binding to myelin fractions (free concentration decreased proportionally with myelin concentration) [4] | binding to non-myelin fractions (non-myelin pellets) | concentration of free, unbound compound (constant and close to the total concentration initially used) (non-myelin pellets) [µM] | SMILES | in vitro fluorescent staining of brain tissue sections [2] | solubility [3] | brain entry and in situ labeling of myelin (myelinated cerebellum)
6.43 |  |  |  | Nc1ccc(/C=C/c2ccc(N)cc2)cc1 [Compound 3, (E)-4,4′-diamino-trans-stilbene] | selectively labeled both corpus callosum and cerebellum | soluble in EtOH, CH2Cl2, DMSO and other organic solvents | 
6.92 | specific binding interactions exist | no binding to the non-myelin fractions | ~10.47 | CN(C)c1ccc(/C=C/c2ccc(N)cc2)cc1 [Compound 6, (E)-dimethyl-{4-[2-(4-amino-phenyl)-vinyl]-phenyl}-amine] | selectively labeled both corpus callosum and cerebellum | soluble in EtOH, CH2Cl2, DMSO and other organic solvents | readily entered the mouse brain and selectively labeled myelinated cerebellum
6.90 | specific binding interactions exist | no binding to the non-myelin fractions | ~10.53 | CNc1ccc(C=Cc2ccc(N)cc2)cc1 [Compound 7, N-methyl-{4-[2-(4-amino-phenyl)-vinyl]-phenyl}-amine] | selectively labeled both corpus callosum and cerebellum | soluble in EtOH, CH2Cl2, DMSO and other organic solvents | readily entered the mouse brain and selectively labeled myelinated cerebellum
6.31 |  |  |  | Nc1ccc(C=Cc2ccc(I)cc2)cc1 [Compound 9, 4-[2-(4-Iodo-phenyl)-vinyl]-phenylamine] |  |  | 
